# Laboratory results published in US9024018B2, “3-substituted-8-substituted-3H-imidazo[5,1-d][1,2,3,5]tetrazin-4-one compounds and their use” (Pharminox Limited, priority 2009, dated 2015).
# What was measured:
# Type in all cases: cell-based
# SNB19V = experiment: MTT assay for 7-day toxicity, SNB19V glioma cells (vector control, MGMT-); conditions: Glioma cell, 168 h, 7 day MTT assay, glioma line SNB19V
# Method: (§1) The cell culture techniques were carried out in a Class II microbiological safety cabinet which was swabbed with 70% IMS in distilled water before each use. Glioma cells were routinely cultured in Costar tissue culture flasks in RPMI 1640 liquid medium (containing 0.3 g/L L-glutamine and 2 g/L sodium bicarbonate) supplemented with 10% heat inactivated FBS (55-59° C.) for 1 hour to denature complement proteins which would otherwise evoke a cellular immune response resulting in cell lysis, 1% non-essential amino acids, 50 μg/mL gentamicin and 400 μg/mL G418 (vector selection reagent). Colorectal and melanoma cells were maintained in RPMI 1640 supplemented with 10% FBS. MRC-5 cells were cultured in EMEM+10% FBS, 1% pen/strep, 1% non-essential amino acids, 1% HEPES (1M) and 1% sodium bicarbonate.
# (§2) Cells were grown at 37° C. in a humidified incubator in an atmosphere comprising 95% air/5% CO2. Cells were sub-cultured when growth exceeded approximately 80% confluence, normally twice weekly. The medium was aspirated from the flask and approximately 0.8 mL trypsin-EDTA 1× solution added. The cells were re-incubated at 37° C. until they had visibly detached from the flask. The cells were re-suspended in 5 mL medium and 0.5-1 mL was transferred to a new flask (25 cm^2) with 7 mL culture medium. The cells were further incubated at 37° C. To minimize phenotypic drift, cells were disposed of once they had been subcultured 30 times. New batches of cells were thawed rapidly in 37° C. water bath once taken from liquid nitrogen storage and re-suspended in 10 mL of culture medium in a 25 cm^2 flask. Cells were passaged twice to allow normal growth to resume prior to use in experiments.
# (§3) Most test compounds, including temozolomide, were prepared as 100 mM stock solutions in DMSO and stored at −20° C. for not more than 6 months.
# (§4) MTT Assay for 7-Day Toxicity Assay
# (§5) This assay was first described in Mosmann, T., 1983, “Rapid colorimetric assay for cellular growth and survival: Application to proliferation and cytotoxicity assays”, Journal of Immunological Methods, Vol. 65, Nos. 1-2, pp. 55-63.
# (§6) Glioma cell lines, SNB19 and U373, both stably transfected with MGMT (i.e., SNB19M and U373M) or their respective vector controls (i.e., SNB19V and U373V); colorectal carcinoma cell lines, HCT116, HT29, and DLD1; melanoma cell line, SKMEL-28; breast cell line, MCF-7; and normal human fetal lung fibroblast cell line, MRC-5; were used at 60-80% confluence, during the logarithmic phase of growth.
# (§7) Following harvesting with trypsin/EDTA, cells in suspension were gently syringed through a 23 gauge needle to obtain a near-single cell suspension. Cells were then seeded into 96-well plates at the desired density in 180 μL culture medium if only one test compound was to be added, or in 160 μL if two test compounds were to be added in combination. Cells were allowed to attach overnight by incubation at 37° C. in 95% air/5% CO2. For the 7 day assay, the cell seeding densities for the different cell lines were as follows: SNB19V, SNB19M: 650 cells/well; U373V, U373M: 650 cells/well; SNB19VR, U373VR: 650 cells/well; HCT116, DLD-1, SKMEL-28, MRC-5, MCF-7: 400 cells/well.
# (§8) The two peripheral lanes of each plate were used as blank wells (cell free) and filled with 200 μL of medium in order to minimise medium evaporation from the plate. A separate time zero (T0) plate was set up alongside other plates. Serial dilutions in tissue culture medium of a 100 mM stock of test compound were prepared immediately before each assay to ten times the final concentrations required. 20 μL was added to each well (200 μL total media per well) to achieve final concentrations of 0.5 μM, 1 μM, 5 μM, 10 μM, 50 μM, 100 μM, 500 μM, and 1000 μM. A minimum of four wells received the same test compound concentration. To control wells, including those in the T0 plate, 20 μL of medium was added. […]
# U373V = experiment: MTT assay for 7-day toxicity, U373V glioma cells (vector control, MGMT-); conditions: Glioma cell, 168 h, 7 day MTT assay, glioma line U373V
# Method: as §1, §2, §3, §4, §5, §6, §7, §8
# U373M = experiment: MTT assay for 7-day toxicity, U373M glioma cells (stably transfected with MGMT, MGMT+); conditions: Glioma cell, 168 h, 7 day MTT assay, glioma line U373M
# Method: as §1, §2, §3, §4, §5, §6, §7, §8
# SNB19M = experiment: MTT assay for 7-day toxicity, SNB19M glioma cells (stably transfected with MGMT, MGMT+); conditions: Glioma cell, 168 h, 7 day MTT assay, glioma line SNB19M
# Method: as §1, §2, §3, §4, §5, §6, §7, §8
compound,measurement,setting,value
"Cn1nnc2c(-c3nc(C(=O)NC(C)(C)C)cs3)ncn2c1=O [WW-009, N-tert-Butyl-2-(3-methyl-4-oxo-3,4-dihydroimidazo[5,1-d][1,2,3,5]tetrazin-8-yl)thiazole-4-carboxamide]",GI50,SNB19V,< 45 µM
same,GI50,U373V,< 75 µM
same,GI50,U373M,< 60 µM
"C#CCn1nnc2c(-c3nc(-c4cccs4)cs3)ncn2c1=O [WW-029, 3-(Prop-2-ynyl)-8-(4-(thiophen-2-yl)thiazol-2-yl)imidazo[5,1-d][1,2,3,5]tetrazin-4(3H)-one]",GI50,SNB19V,< 45 µM
same,GI50,U373V,< 75 µM
same,GI50,SNB19M,< 70 µM
same,GI50,U373M,< 60 µM
"C#CCn1nnc2c(-c3nc(-c4ccsc4)cs3)ncn2c1=O [WW-024, 3-(Prop-2-ynyl)-8-(4-(thiophen-3-yl)thiazol-2-yl)imidazo[5,1-d][1,2,3,5]tetrazin-4(3H)-one]",GI50,SNB19V,< 45 µM
same,GI50,U373V,< 75 µM
same,GI50,SNB19M,< 70 µM
same,GI50,U373M,< 60 µM
"COCn1nnc2c(C(=O)Nc3ccccc3)ncn2c1=O [LL-002, 3-(Methoxymethyl)-4-oxo-N-phenyl-3,4-dihydroimidazo[5,1-d][1,2,3,5]tetrazine-8-carboxamide]",GI50,SNB19V,55.3 µM
same,GI50,U373V,36.3 µM
same,GI50,SNB19M,43.8 µM
same,GI50,U373M,52.3 µM
"CCc1csc(-c2ncn3c(=O)n(C)nnc23)n1 [WW-003, 8-(4-Ethylthiazol-2-yl)-3-methylimidazo[5,1-d][1,2,3,5]tetrazin-4(3H)-one]",GI50,SNB19V,< 45 µM
same,GI50,U373V,< 75 µM
same,GI50,SNB19M,< 70 µM
same,GI50,U373M,< 60 µM
"C#CCn1nnc2c(C(=N)NCC(=O)OC)ncn2c1=O [SS-001, Methyl-2-(4-oxo-3-(prop-2-ynyl)-3,4-dihydroimidazo[5,1-d][1,2,3,5]tetrazine-8-carboximidamido)acetate hydroiodide]",GI50,SNB19V,59 µM
same,GI50,U373V,51.2 µM
same,GI50,SNB19M,52.7 µM
same,GI50,U373M,55.1 µM
C#CCn1nnc2c(-c3nc(-c4ccc(S(C)(=O)=O)cc4)cs3)ncn2c1=O [WW-025],GI50,SNB19V,< 45 µM
same,GI50,U373V,< 75 µM
same,GI50,SNB19M,< 70 µM
same,GI50,U373M,< 60 µM
"Cn1nnc2c(-c3nc(-c4ccccc4)c[nH]3)ncn2c1=O [WW-049, 3-Methyl-8-(4-phenyl-1H-imidazol-2-yl)imidazo[5,1-d][1,2,3,5]tetrazin-4(3H)-one]",GI50,SNB19V,< 45 µM
same,GI50,U373V,< 75 µM
same,GI50,SNB19M,< 70 µM
same,GI50,U373M,< 60 µM
"C[S+]([O-])Cn1nnc2c(-c3nc(-c4ccccc4)cs3)ncn2c1=O (stereo not shown) [WW-031, 3-(methylsulfinylmethyl)-8-(4-phenylthiazol-2-yl)imidazo[5,1-d][1,2,3,5]tetrazin-4(3H)-one]",GI50,SNB19V,< 45 µM
same,GI50,U373V,< 75 µM
same,GI50,SNB19M,< 70 µM
same,GI50,U373M,< 60 µM
"COCn1nnc2c(/C=C/c3cccs3)ncn2c1=O [MM-004, (E)-3-(Methoxymethyl)-8-(2-(thiophen-2-yl)vinyl)imidazo[5,1-d][1,2,3,5]tetrazin-4(3H)-one]",GI50,SNB19V,4.5 µM
same,GI50,U373V,4.4 µM
same,GI50,SNB19M,5.1 µM
same,GI50,U373M,6.5 µM
"C#CCNC(=O)c1csc(-c2ncn3c(=O)n(C)nnc23)n1 [WW-005, 2-(3-Methyl-4-oxo-3,4-dihydroimidazo[5,1-d][1,2,3,5]tetrazin-8-yl)-N-(prop-2-ynyl)thiazole-4-carboxamide]",GI50,SNB19V,< 45 µM
same,GI50,U373V,< 75 µM
same,GI50,SNB19M,< 70 µM
same,GI50,U373M,< 60 µM
"C[S+]([O-])Cn1nnc2c(-c3nc(-c4cccs4)cs3)ncn2c1=O (stereo not shown) [WW-036, 3-(methylsulfinylmethyl)-8-(4-(thiophen-2-yl)thiazol-2-yl)imidazo[5,1-d][1,2,3,5]tetrazin-4(3H)-one]",GI50,SNB19V,< 45 µM
same,GI50,U373V,< 75 µM
same,GI50,SNB19M,< 70 µM
same,GI50,U373M,< 60 µM
"Cn1nnc2c(-c3nc(C#N)cs3)ncn2c1=O [WW-006, 2-(3-Methyl-4-oxo-3,4-dihydroimidazo[5,1-d][1,2,3,5]tetrazin-8-yl)thiazole-4-carbonitrile]",GI50,SNB19V,< 45 µM
same,GI50,U373V,< 75 µM
same,GI50,U373M,< 60 µM
"Cn1cc(-c2ccccc2)nc1-c1ncn2c(=O)n(C)nnc12 [WW-051, 3-Methyl-8-(1-methyl-4-phenyl-1H-imidazol-2-yl)imidazo[5,1-d][1,2,3,5]tetrazin-4(3H)-one]",GI50,SNB19V,< 45 µM
same,GI50,U373V,< 75 µM
same,GI50,SNB19M,< 70 µM
same,GI50,U373M,< 60 µM
"Cn1nnc2c(-c3ncc[nH]3)ncn2c1=O [WW-047, 8-(1H-Imidazol-2-yl)-3-methylimidazo[5,1-d][1,2,3,5]tetrazin-4(3H)-one]",GI50,SNB19V,< 45 µM
same,GI50,U373V,< 75 µM
same,GI50,SNB19M,< 70 µM
same,GI50,U373M,< 60 µM
"Cn1nnc2c(C(N)=O)ncn2c1=O [TMZ, temozolomide, reference compound]",GI50,SNB19V,45.6 µM
same,GI50,U373V,72.9 µM
same,GI50,SNB19M,526 µM
same,GI50,U373M,395 µM
"COCn1nnc2c(/C=C/c3ccc(C#N)cc3)ncn2c1=O [MM-001, (E)-4-(2-(3-(Methoxymethyl)-4-oxo-3,4-dihydroimidazo[5,1-d][1,2,3,5]tetrazin-8-yl)vinyl)benzonitrile]",GI50,SNB19V,9.1 µM
same,GI50,U373V,7.7 µM
same,GI50,SNB19M,8.9 µM
same,GI50,U373M,8.8 µM
"Cn1nnc2c(-c3nc(-c4cccs4)c[nH]3)ncn2c1=O [WW-048, 3-Methyl-8-(4-(thiophen-2-yl)-1H-imidazol-2-yl)imidazo[5,1-d][1,2,3,5]tetrazin-4(3H)-one]",GI50,SNB19V,< 45 µM
same,GI50,U373V,< 75 µM
same,GI50,SNB19M,< 70 µM
same,GI50,U373M,< 60 µM
Cn1nnc2c(-c3nc(-c4ccccc4)cs3)ncn2c1=O [WW-002],GI50,SNB19V,< 45 µM
same,GI50,U373V,< 75 µM
same,GI50,SNB19M,< 70 µM
same,GI50,U373M,< 60 µM
"Cn1nnc2c(-c3nc4ccccc4[nH]3)ncn2c1=O [WW-062, 8-(1H-Benzo[d]imidazol-2-yl)-3-methylimidazo[5,1-d][1,2,3,5]tetrazin-4(3H)-one]",GI50,SNB19V,< 45 µM
same,GI50,U373V,< 75 µM
same,GI50,SNB19M,< 70 µM
same,GI50,U373M,< 60 µM
"C#CCn1nnc2c(-c3nc(-c4ccccc4)cs3)ncn2c1=O [WW-004, 8-(4-phenylthiazol-2-yl)-3-(prop-2-ynyl)imidazo[5,1-d][1,2,3,5]tetrazin-4(3H)-one]",GI50,SNB19V,< 45 µM
same,GI50,U373V,< 75 µM
same,GI50,SNB19M,< 70 µM
same,GI50,U373M,< 60 µM
"COCn1nnc2c(-c3nc(C(C)(C)C)cs3)ncn2c1=O [WW-014, 8-(4-tert-Butylthiazol-2-yl)-3-(methoxymethyl)imidazo[5,1-d][1,2,3,5]tetrazin-4(3H)-one]",GI50,U373V,< 75 µM
same,GI50,SNB19M,< 70 µM
same,GI50,U373M,< 60 µM
"COCn1nnc2c(-c3nc(-c4ccccc4)cs3)ncn2c1=O [WW-016, 3-(Methoxymethyl)-8-(4-phenylthiazol-2-yl)imidazo[5,1-d][1,2,3,5]tetrazin-4(3H)-one]",GI50,U373V,< 75 µM
same,GI50,SNB19M,< 70 µM
same,GI50,U373M,< 60 µM
"COCn1nnc2c(-c3nnc(NCc4ccccc4)o3)ncn2c1=O [WW-046, 8-(5-(Benzylamino)-1,3,4-oxadiazol-2-yl)-3-(methoxymethyl)imidazo[5,1-d][1,2,3,5]tetrazin-4(3H)-one]",GI50,U373V,< 75 µM
same,GI50,SNB19M,< 70 µM
same,GI50,U373M,< 60 µM
"COCn1nnc2c(-c3nc(-c4nccs4)cs3)ncn2c1=O [WW-015, 8-(2,4′-Bithiazol-2′-yl)-3-(methoxymethyl)imidazo[5,1-d][1,2,3,5]tetrazin-4(3H)-one]",GI50,U373V,< 75 µM
same,GI50,SNB19M,< 70 µM
same,GI50,U373M,< 60 µM
